What all share (type): cell-based
Assay [1] concerns HPV5 PsV. Put plainly: Peptide inhibition of HPV5 PsV infection of HeLa-S3 cells, flow cytometry for HcRed. Particulars: 14 μM peptide, MOI of one, 48 h.p.i. The text has this: FIG. 18A (top) depicts sequences of L2 peptides. […] Amino acid substitutions in the CPP or RBS mutant peptides are shown in orange and blue, respectively. Bottom: RBS and flanking sequences of indicated HPV L2 proteins or DMT1-II. FIG. 18B depicts an inhibitory dose-response curve for P16/16 peptide. 5×10^4 HeLa-S3 in 24-well plates were pretreated with various concentrations of P16/16 for one hour prior to infection with HPV pseudovirus (PsV) at multiplicity of infection (MOI) of 1. Peptide was left in the medium for the duration of the experiment. Cells were assessed by flow cytometry to determine the fraction of cells expressing reporter protein HcRed at 48 hours post-infection (h.p.i.). […] Forty-eight h.p.i., cells were assessed by flow cytometry to determine fraction of cells expressing reporter protein HcRed. […] HaCaT keratinocytes were infected at MOI of 1 with HPV16 PsV in the presence and absence of 14 μM P16/16, and infectivity was assessed 48 h.p.i. by flow cytometry for HcRed fluorescence. […] Successful infection by HPV16 and HPV16 PsV was assessed by quantitative reverse transcription-PCR (qRT-PCR) for expression of HPV early region and HcRed mRNA, respectively, and normalized to infection by the cognate virus in the absence of peptide. Background signal determined with non-cognate primers was <0.01%. […]

Assay [2] concerns HPV16 PsV. In words: HPV16 PsV internalization in peptide-treated HeLa-S3 cells, anti-L1 immunofluorescence. The conditions noted are these: 14 μM, MOI of 50, 8 or 16 h at 37° C. On the procedure: HeLa-S3 cells were incubated with 14 μM P16/16 or vehicle for one hour, followed by infection with HPV16 PsV at MOI of 50 at 4° C. for 2 h. Cells were washed with PBS to remove loosely-bound PsV and then shifted to 37° C. to allow virus internalization. After 8 or 16 h at 37° C., samples were fixed with 4% paraformaldehyde, permeabilized with 1% saponin, and stained with anti-L1 antibody. Cells were also stained with DAPI to visualize nuclei and examined by a Leica SP5 confocal microscope.
For the internalization experiments, 5×10^4 HeLa-S3 cells were grown on glass coverslips for 16 hours. After one-hour incubation with or without peptides, PsV at MOI of 50 were added and incubated at 4° C. for 2 hours, washed with PBS three times to remove loosely bound PsV, and shifted to 37° C.to initiate infection. As a control, cells were incubated with the solution used to dissolve peptides alone. At the indicated times post-infection, samples were fixed, permeabilized and stained with anti-L1 and AlexaFluor 488 conjugated secondary antibody. Cells were analyzed by a Leica SP5 confocal microscope.

In assay [3] the test system is EEA1 / HPV16 L1. Put plainly: Proximity ligation assay for L1 and EEA1 in peptide-treated infected cells. Particulars: 14 μM. As for the experimental part:
HeLa-S3 cells grown on glass coverslips for 16 hours were incubated for one hour with or without 14 μM P16/16, followed by mock-infection or infection with HPV16 PSV at MOI of 200. 8 and 16 h.p.i., cells were processed for PLA with anti-L1 antibody and an antibody recognizing EEA1 (FIG. 20A) or TGN46 (FIG. 20B). PLA was performed as in FIG. 19B. The PLA signal for EEA1/L1 was normalized to that of cells infected with HPV16 PsV in the absence of peptide at 8 h.p.i., while the TGN46/L1 signal was normalized to untreated cells at 16 h.p.i.
For the proximity ligation assay, after an hour incubation with peptides, HeLa-S3 cells were infected with wild-type PSV at MOI of 200 or mutant PsV containing the same number of reporter plasmid genomes. Infected cells were fixed at 8 or 16 h.p.i., permeabilized, and incubated with 1:100 dilutions of anti-L1 antibody and an antibody recognizing EEA1, TGN46, or VPS35. […] The nuclei were stained by using Abcam fluorescence mounting medium with DAPI and images were acquired by a Leica SP5 inverted fluorescence microscope. […] The images were processed by Fiji and quantitatively analyzed by BlobFinder software to measure total fluorescence intensity in each sample. The average fluorescence intensity per cell in each sample was normalized to the control sample as indicated in each experiment. […]

Assay [4] has as its system HPV16 PsV. Put plainly: Inhibition of HPV16 PsV infection of HaCaT keratinocytes. The conditions noted are these: 14 μM, MOI of 1, 48 h.p.i. The text has this: FIG. 18A (top) depicts sequences of L2 peptides. […] Amino acid substitutions in the CPP or RBS mutant peptides are shown in orange and blue, respectively. Bottom: RBS and flanking sequences of indicated HPV L2 proteins or DMT1-II. FIG. 18B depicts an inhibitory dose-response curve for P16/16 peptide. 5×10^4 HeLa-S3 in 24-well plates were pretreated with various concentrations of P16/16 for one hour prior to infection with HPV pseudovirus (PsV) at multiplicity of infection (MOI) of 1. Peptide was left in the medium for the duration of the experiment. Cells were assessed by flow cytometry to determine the fraction of cells expressing reporter protein HcRed at 48 hours post-infection (h.p.i.). […] Forty-eight h.p.i., cells were assessed by flow cytometry to determine fraction of cells expressing reporter protein HcRed. […] HaCaT keratinocytes were infected at MOI of 1 with HPV16 PsV in the presence and absence of 14 μM P16/16, and infectivity was assessed 48 h.p.i. by flow cytometry for HcRed fluorescence. […] Successful infection by HPV16 and HPV16 PsV was assessed by quantitative reverse transcription-PCR (qRT-PCR) for expression of HPV early region and HcRed mRNA, respectively, and normalized to infection by the cognate virus in the absence of peptide. Background signal determined with non-cognate primers was <0.01%.

In the case of `CC[C@H](C)[C@H](NC(=O)[C@@H](NC(=O)[C@H](Cc1ccc(O)cc1)NC(=O)[C@H](CCC(N)=O)NC(=O)[C@@H]1CCCN1C(=O)[C@H](CO)NC(=O)[C@@H](N)CS)[C@@H](C)O)C(=O)N[C@H](C(=O)N[C@@H](C)C(=O)N[C@@H](CC(=O)O)C(=O)N[C@@H](C)C(=O)NCC(=O)N[C@@H](CC(=O)O)C(=O)N[C@@H](Cc1ccccc1)C(=O)N[C@@H](Cc1ccc(O)cc1)C(=O)N[C@@H](CC(C)C)C(=O)N[C@@H](Cc1c[nH]cn1)C(=O)N1CCC[C@H]1C(=O)N[C@@H](CO)C(=O)N[C@@H](Cc1ccc(O)cc1)C(=O)N[C@@H](Cc1ccc(O)cc1)C(=O)N[C@@H](CCSC)C(=O)N[C@@H](CC(C)C)C(=O)N[C@@H](CCCNC(=N)N)C(=O)N[C@@H](CCCCN)C(=O)N[C@@H](CCCNC(=N)N)C(=O)N[C@@H](CCCNC(=N)N)C(=O)N[C@@H](CCCCN)C(=O)N[C@@H](CCCNC(=N)N)C(=O)O)[C@@H](C)CC` [P16/16], the “inhibition of HPV5 PsV infection” value in assay [1] was “potently inhibited infection”. Besides, the virus internalization result in assay [2] was “did not inhibit virus internalization”. Further, in assay [3] (MOI of 200, 8 h.p.i.), the “EEA1/L1 PLA at 8 h.p.i.” value is “arrival of HPV at the endosome regardless of the presence of the peptide”. The “EEA1/L1 PLA at 16 h.p.i.” value in assay [3] (MOI of 200, 16 h.p.i.) is listed as “striking accumulation of the virus in the endosome”. Moreover, in assay [4], the “inhibition of HPV16 PsV infection in HaCaT” value is “inhibited infection”.
